The source of these data is ChEMBL document CHEMBL1144316, “Synthesis and biological activity evaluation of lignan lactones derived from (-)-cubebin” (2005).

The assay has as its system Rattus norvegicus. The assay can be described thus: Percentage inhibition of edema formation in rat after 3 hours of treatment with the compound at a dosage of 30 mg/Kg. It is filed as functional.

The inhibition in vivo is the change of the read-out against control, counted positive when it falls. A low value points to little suppression.

For the molecule `OC1OC[C@@H](Cc2ccc3c(c2)OCO3)[C@@H]1Cc1ccc2c(c1)OCO2` (some centres undefined), the inhibition in vivo at 30 mg/kg was determined as 53%.
Molecule `O=C1OC[C@@H](Cc2cc3c(cc2[N+](=O)[O-])OCO3)[C@@H]1Cc1cc2c(cc1[N+](=O)[O-])OCO2` returned an inhibition in vivo at 30 mg/kg of 54%.
Consider `Nc1cc2c(cc1C[C@@H]1COC(=O)[C@H]1Cc1cc3c(cc1N)OCO3)OCO2`, for which the inhibition in vivo at 30 mg/kg is 82%.
The result for `O=C1OC[C@@H](Cc2ccc3c(c2)OCO3)[C@@H]1Cc1ccc2c(c1)OCO2` reads 63%.
